# According to US6479509B1, “Method of promoting smoking cessation” (priority 2000, dated 2002):
# Marks after values point to notes of the source that are not given here.
# Key:
# [1] = test system: nicotine-induced seizures; experiment: Nicotine-induced seizure activity; format: in vivo, mice
# Method: Seizure Activity. Following s.c. injection of nicotine at a dose of 9 mg/kg, each animal was placed in a 30 cm×30 cm Plexiglass cage and observed for 5 min. […] This amount of time was chosen because seizures occur very quickly after nicotine administration. Results are expressed as percentage seizure.
# [2] = test system: nicotine-induced motor impairment; experiment: Blockade of nicotine-induced motor impairment, rotarod test; format: in vivo, mice; conditions: without nicotine
# Method: Motor Coordination. To measure motor coordination, a wooden rod 6 cm in diameter was partitioned into three compartments by circular metal discs (28 cm in diameter) at 18-cm intervals. The rod was attached to a motor and rotated at a rate of 4 rpm. Naive mice were trained until they could remain on the rotarod for 3 min. […] This training took place no longer than 15 min before the s.c. administration of nicotine. Twenty minutes after the injection, mice were placed on the rotarod for 5 min. The amount of time the animals remained on the rotarod was recorded and percent impairment was calculated as % Impairment=[(]-(test time in s/300))×100]. An impairment value of 0% corresponds to the subjects that remained on the rotarod for 5 min (300 s), whereas 100% impairment corresponds to subjects, that fell off the rotarod immediately.
# (§1) Data were analyzed statistically by an analysis of variance followed by the Fisher's P least-significant difference multiple comparison test. The null hypothesis was rejected at the […].
# [3] = test system: nicotine-induced hypothermia; experiment: Blockade of nicotine-induced hypothermia (body temperature); format: in vivo, mice; conditions: @ 32 μmol/hg
# Method: Body Temperature. Rectal temperature was measured by a thermistor probe (inserted 24 mm) and digital thermometer (Yellow Springs Instrument Co., Yellow Springs, Ohio). Readings were taken just before and at 30 min after the s.c. injection of nicotine. For antagonism studies, mice were pretreated with either saline or various drugs 10 min before nicotine. The difference in rectal temperature before and after treatment was calculated for each mouse. The ambient temperature of the laboratory varied from 21 to 24° C. from day to day.
# as §1
# [4] = test system: nicotine-induced antinociception; experiment: Blockade of nicotine-induced antinociception, tail-flick test; format: in vivo, mice; conditions: blocking antinociception of nicotine 2.5 mg/kg, mice, systemic administration
# Method: Anitinociception. The tail-flick method of D'Amour and Smith (1941) as modified by Dewey et al. (1970) was used. A control response (2-4 s) was determined for each animal before treatment, and a test latency was determined after drug administration. To minimize tissue damage, a maximum latency of 10 s was imposed. Antinociceptive response was calculated as percent maximum possible effect (% MPE), where % MPE=[((test-control)/(10-control))×100], Groups of 8 to 12 animals were used for each dose and for each treatment. Mice were tested 5 min after nicotine administration for the dose-response evaluation. Antagonism studies were carried out by pretreating the mice s.c. with either saline or various drugs at different times before nicotine. The animals were tested 5 min after administration of nicotine.
# as §1
# [5] = test system: discriminative stimulus effect of nicotine; experiment: Nicotine drug discrimination; format: in vivo; conditions: rats
# Method: Rats were individually housed in a temperature-controlled environment and were maintained on a diet (Agway Rodent Chow) that restricted their body weight to approximately 85% of their free feeding weight. Water was available ad libitum in the home cages. A two-lever operant drug nation paradigm (VI 15) was carried out in eight operant chambers (4 Lafayette model 80001 and 4 BRS/LVIE model s 002). Reinforcement was a Bioserv 45-mg precision dustless pellet. Data were collected automatically by two Commodore 64 microcomputers.
# Rats were placed in an operant chamber 5 min after injections. […] Animals were required to meet a criterion of three successive days of 80% or greater correct-lever responding before testing was initiated. Injections were given 5 min before placing the animal in the operant chamber. The schedule of injections, was determined using a Latin Square design. Dose-response curves were determined for nicotine 5 min after s.c. injections.
compound,measurement,setting,value
COC(=O)[C@H]1[C@@H](OC(=O)c2ccccc2)C[C@@H]2CC[C@H]1N2C [Cocaine],% Seizures (Mean),"[1]; cocaine 10 mg/kg pretreatment, nicotine 9 mg/kg",83.3%
same,% Seizures (Mean),"[1]; cocaine 20 mg/kg pretreatment, nicotine 9 mg/kg, P < .05 from saline/nicotine",50^c %
same,% Seizures (Mean),"[1]; cocaine 30 mg/kg pretreatment, nicotine 9 mg/kg, P < .05 from saline/nicotine",16^c %
same,"AD50, antagonism of nicotine-induced seizures","[1]; mice, estimated",50 µmol/kg
same,% Seizures (Mean),"[1]; saline pretreatment, cocaine 20 mg/kg challenge",0%
same,"Performance on the rotarod test, by itself",[2],did not significantly alter performance
same,"Hypothermia, % blockade @ dose",[3],20% @ 32
same,AD50 Tail-Flick,[4],3.2 μmol/hg
same,Drug discrimination % Test (Mean ± SE),"[5]; cocaine 10 mg/kg pretreatment, nicotine 0.4 mg/kg",69 ± 8%
same,Drug discrimination % Test (Mean ± SE),"[5]; saline pretreatment, cocaine 10 mg/kg",17 ± 7%
